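The compound was tested at five concentrations on cells cultured in 96-well plates, with a 48-hour exposure period. At the GI50, growth is halved. TGI: total growth inhibition.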
Tests used:
Assay in all cases: DTP human tumour cell line panel, 48 h
[1] = tested on: LOX IMVI melanoma
[2] = tested on: U251 CNS
[3] = tested on: TK-10 renal
[4] = tested on: EKVX NSCLC
[5] = tested on: UACC-62 melanoma
[6] = tested on: A498 renal
[7] = tested on: SW-620 colon
[8] = tested on: SK-MEL-2 melanoma
[9] = tested on: UACC-257 melanoma
[10] = tested on: SF-268 CNS

Structure (SMILES): C[C@]12CC[C@@H]3c4ccc(OCCN5CCCC5)cc4CC[C@H]3[C@@H]1CCC2=O
- TGI [1]: 29.7 µM
- TGI [2]: > 100 µM
- TGI [3]: > 100 µM
- TGI [4]: 67.6 µM
- TGI [5]: 69.8 µM
- TGI [6]: > 100 µM
- TGI [7]: > 100 µM
- TGI [8]: 35.1 µM
- TGI [9]: > 100 µM

Structure (SMILES): CCCCCCCCCCCCCCCC(=O)OC1C(O)C(CO)OC(OC)C1NC(=O)N(CCCl)N=O (stereo not given)
- TGI [10]: 15.5 µM
- TGI [1]: 23.9 µM
- TGI [2]: 19.9 µM
- TGI [3]: 28.9 µM
- TGI [4]: 34.7 µM
- TGI [5]: 17.1 µM
- TGI [7]: 26.1 µM
- TGI [8]: 44.3 µM
- TGI [9]: 31.5 µM

Structure (SMILES): CCCOC1OC(CS(=O)(=O)O)C(O)C(O)C1O (stereo not given)
- TGI [1]: > 100 µM
- TGI [2]: > 100 µM
- TGI [3]: > 100 µM
- TGI [5]: > 100 µM
- TGI [6]: > 100 µM
- TGI [7]: > 100 µM
- TGI [8]: > 100 µM
- TGI [9]: > 100 µM

Structure (SMILES): O=c1nc2sc3ccc4ccccc4c3n2[nH]c1=O
- TGI [10]: > 100 µM
- TGI [2]: > 100 µM
- TGI [3]: > 100 µM
- TGI [4]: > 100 µM
- TGI [5]: > 100 µM
- TGI [7]: > 100 µM

Structure (SMILES): CCCCN=C1OCc2[nH][nH]c(=O)c21
- TGI [10]: > 100 µM
- TGI [1]: > 100 µM
- TGI [2]: > 100 µM
- TGI [3]: > 100 µM
- TGI [4]: > 100 µM
- TGI [5]: > 100 µM
- TGI [6]: > 100 µM
- TGI [7]: > 100 µM
- TGI [8]: > 100 µM
- TGI [9]: > 100 µM

Structure (SMILES): O=C(O)Cn1c2c(c3c(O)cccc31)C(=O)c1ccccc1-2
- GI50 [10]: > 100 µM
- TGI [10]: > 100 µM
- GI50 [1]: > 100 µM
- TGI [1]: > 100 µM
- GI50 [2]: > 100 µM
- TGI [2]: > 100 µM
- GI50 [3]: > 100 µM
- TGI [3]: > 100 µM
- GI50 [4]: 3.2 µM
- TGI [4]: > 100 µM
- GI50 [6]: > 100 µM
- TGI [6]: > 100 µM
- GI50 [7]: > 100 µM
- TGI [7]: > 100 µM
- GI50 [8]: > 100 µM
- TGI [8]: > 100 µM
- GI50 [9]: > 100 µM
- TGI [9]: > 100 µM

Structure (SMILES): CCOC(=O)NC(Nc1ccc(Cl)cn1)(C(F)(F)F)C(F)(F)F
- TGI [10]: > 100 µM
- TGI [1]: > 100 µM
- TGI [2]: > 100 µM
- TGI [3]: > 100 µM
- TGI [4]: > 100 µM
- TGI [5]: > 100 µM
- TGI [6]: > 100 µM
- TGI [8]: > 100 µM
- TGI [9]: > 100 µM

Structure (SMILES): N#CCCN(CCC#N)c1ccc(/C=C2\N=C(c3cc([N+](=O)[O-])ccc3Cl)N(NC(=O)CC(=O)Nc3ccccc3Cl)C2=O)cc1
- TGI [10]: > 100 µM
- TGI [1]: > 100 µM
- TGI [2]: > 100 µM
- TGI [3]: > 100 µM
- TGI [4]: > 100 µM
- TGI [5]: > 100 µM
- TGI [7]: > 100 µM
- TGI [8]: > 100 µM

Structure (SMILES): CC(=O)N/C(=C\c1ccc(/C=C(\NC(C)=O)C2=NC3C(=O)c4ccccc4C(=O)C3N2)cc1)C1=NC2C(=O)c3ccccc3C(=O)C2N1 (stereo not given)
- TGI [10]: > 100 µM
- TGI [1]: > 100 µM
- TGI [2]: > 100 µM
- TGI [3]: 69.3 µM
- TGI [4]: > 100 µM
- TGI [5]: > 100 µM
- TGI [6]: > 100 µM
- TGI [9]: > 100 µM

— PubChem BioAssay (NCI)
